pIC50: −log10 of the molar value.
Tests used:
[1] = target: Phosphatidylinositol 4,5-bisphosphate 3-kinase catalytic subunit alpha isoform (Homo sapiens, UniProt P42336)
Description: Inhibition of human recombinant PI3K p110alpha after 1 hr by radiometric scintillation proximity assay

[2] = target: Phosphatidylinositol 4,5-bisphosphate 3-kinase catalytic subunit beta isoform (Homo sapiens, UniProt P42338); test: Inhibition of human recombinant PI3K p110beta after 1 hr by radiometric scintillation proximity assay
IGROV-1 [3] = test: cells; conditions: Homo sapiens, IGROV-1, 96 h
Description: Cytotoxicity against human IGROV1 cells after 96 hrs by SRB assay

[4] = target: Phosphatidylinositol 4,5-bisphosphate 3-kinase catalytic subunit gamma isoform (Homo sapiens, UniProt P48736)
Sequence of Phosphatidylinositol 4,5-bisphosphate 3-kinase catalytic subunit gamma isoform (P48736 whole entry, canonical isoform): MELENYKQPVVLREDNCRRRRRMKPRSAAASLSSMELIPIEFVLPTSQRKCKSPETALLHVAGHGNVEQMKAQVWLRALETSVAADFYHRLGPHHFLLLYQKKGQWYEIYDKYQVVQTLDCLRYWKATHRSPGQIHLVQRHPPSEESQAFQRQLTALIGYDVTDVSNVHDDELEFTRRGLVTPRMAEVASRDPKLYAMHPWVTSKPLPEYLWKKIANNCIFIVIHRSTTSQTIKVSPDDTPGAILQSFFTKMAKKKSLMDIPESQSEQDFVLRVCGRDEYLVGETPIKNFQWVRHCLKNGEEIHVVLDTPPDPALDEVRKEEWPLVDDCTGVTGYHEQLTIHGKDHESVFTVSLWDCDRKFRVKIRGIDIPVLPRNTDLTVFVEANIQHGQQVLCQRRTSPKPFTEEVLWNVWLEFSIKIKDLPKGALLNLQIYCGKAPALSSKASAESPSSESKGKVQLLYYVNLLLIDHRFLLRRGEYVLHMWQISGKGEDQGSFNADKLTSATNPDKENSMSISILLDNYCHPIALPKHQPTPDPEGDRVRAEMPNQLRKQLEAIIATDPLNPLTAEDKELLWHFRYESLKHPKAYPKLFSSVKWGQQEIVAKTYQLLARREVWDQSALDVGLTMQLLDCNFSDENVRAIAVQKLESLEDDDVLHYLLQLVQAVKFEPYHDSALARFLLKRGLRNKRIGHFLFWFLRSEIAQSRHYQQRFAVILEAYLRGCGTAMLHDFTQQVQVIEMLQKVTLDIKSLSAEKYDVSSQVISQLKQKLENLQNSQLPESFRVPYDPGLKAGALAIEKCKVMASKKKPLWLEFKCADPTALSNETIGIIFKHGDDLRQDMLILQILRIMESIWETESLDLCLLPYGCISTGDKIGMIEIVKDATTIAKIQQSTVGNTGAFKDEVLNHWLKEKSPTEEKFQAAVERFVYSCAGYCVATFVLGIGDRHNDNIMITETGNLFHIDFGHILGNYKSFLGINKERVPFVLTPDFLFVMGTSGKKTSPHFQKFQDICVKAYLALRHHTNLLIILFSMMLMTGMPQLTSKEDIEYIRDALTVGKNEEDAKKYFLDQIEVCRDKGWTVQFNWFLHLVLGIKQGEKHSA
Description: Inhibition of human recombinant PI3K p110gamma after 1 hr by radiometric scintillation proximity assay

[5] = Metabolic stability in mouse liver microsomes assessed as compound metabolized at […] after 30 mins by MS analysis; format: ADME, Microsome; conditions: read-out: Activity
[6] = Metabolic stability in mouse liver microsomes assessed as compound metabolized at […] after 15 mins by MS analysis; format: ADME, Microsome; conditions: read-out: Activity
IGROV-1 [7] = test: Cell cycle arrest in human IGROV1 cells assessed as accumulation at G2/M phase at 1 fold IC50 after 24 hrs by flow cytometry; format: functional
IGROV-1 [8] = test: Cell cycle arrest in human IGROV1 cells assessed as accumulation at S phase at 5 fold IC50 after 24 hrs by flow cytometry; format: functional
IGROV-1 [9] = test: Cell cycle arrest in human IGROV1 cells assessed as accumulation at G1 phase at 1 fold IC50 after 24 hrs by flow cytometry; format: functional
IGROV-1 [10] = test: Cell cycle arrest in human IGROV1 cells assessed as accumulation at G1 phase at 5 fold IC50 after 24 hrs by flow cytometry; format: functional
IGROV-1 [11] = test: Cell cycle arrest in human IGROV1 cells assessed as accumulation at G2/M phase at 5 fold IC50 after 24 hrs by flow cytometry; format: functional
IGROV-1 [12] = test: Cell cycle arrest in human IGROV1 cells assessed as accumulation at S phase at 1 fold IC50 after 24 hrs by flow cytometry; format: functional

Sequence of Phosphatidylinositol 4,5-bisphosphate 3-kinase catalytic subunit alpha isoform (P42336 whole entry, canonical isoform): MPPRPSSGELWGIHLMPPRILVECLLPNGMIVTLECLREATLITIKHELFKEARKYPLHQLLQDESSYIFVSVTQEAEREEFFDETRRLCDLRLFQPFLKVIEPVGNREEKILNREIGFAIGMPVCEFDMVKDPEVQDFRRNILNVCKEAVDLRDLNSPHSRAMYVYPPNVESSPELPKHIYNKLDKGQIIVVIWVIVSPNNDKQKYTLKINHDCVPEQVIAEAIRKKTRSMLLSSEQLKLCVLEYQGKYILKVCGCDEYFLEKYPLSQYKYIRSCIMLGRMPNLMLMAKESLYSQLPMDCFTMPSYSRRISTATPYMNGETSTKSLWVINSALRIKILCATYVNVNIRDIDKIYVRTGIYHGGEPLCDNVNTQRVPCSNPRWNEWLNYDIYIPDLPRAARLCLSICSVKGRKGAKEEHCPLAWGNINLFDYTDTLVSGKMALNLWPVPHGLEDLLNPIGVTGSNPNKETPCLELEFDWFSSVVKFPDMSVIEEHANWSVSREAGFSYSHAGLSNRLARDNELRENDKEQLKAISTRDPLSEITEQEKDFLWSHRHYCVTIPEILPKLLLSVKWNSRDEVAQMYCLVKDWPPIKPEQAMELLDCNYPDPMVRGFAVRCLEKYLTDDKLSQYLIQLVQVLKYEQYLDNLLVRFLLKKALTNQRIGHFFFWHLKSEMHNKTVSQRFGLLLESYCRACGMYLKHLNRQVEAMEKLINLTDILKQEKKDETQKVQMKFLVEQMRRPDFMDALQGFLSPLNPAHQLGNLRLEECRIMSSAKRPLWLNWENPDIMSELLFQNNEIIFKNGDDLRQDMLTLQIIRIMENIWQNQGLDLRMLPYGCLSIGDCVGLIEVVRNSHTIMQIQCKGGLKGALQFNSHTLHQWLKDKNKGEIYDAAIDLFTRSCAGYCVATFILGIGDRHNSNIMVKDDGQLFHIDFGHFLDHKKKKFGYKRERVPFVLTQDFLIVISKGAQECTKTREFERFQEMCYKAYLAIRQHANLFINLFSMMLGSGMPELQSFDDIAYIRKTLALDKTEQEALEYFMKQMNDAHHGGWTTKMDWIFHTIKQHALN
Sequence of Phosphatidylinositol 4,5-bisphosphate 3-kinase catalytic subunit beta isoform (P42338 whole entry, canonical isoform): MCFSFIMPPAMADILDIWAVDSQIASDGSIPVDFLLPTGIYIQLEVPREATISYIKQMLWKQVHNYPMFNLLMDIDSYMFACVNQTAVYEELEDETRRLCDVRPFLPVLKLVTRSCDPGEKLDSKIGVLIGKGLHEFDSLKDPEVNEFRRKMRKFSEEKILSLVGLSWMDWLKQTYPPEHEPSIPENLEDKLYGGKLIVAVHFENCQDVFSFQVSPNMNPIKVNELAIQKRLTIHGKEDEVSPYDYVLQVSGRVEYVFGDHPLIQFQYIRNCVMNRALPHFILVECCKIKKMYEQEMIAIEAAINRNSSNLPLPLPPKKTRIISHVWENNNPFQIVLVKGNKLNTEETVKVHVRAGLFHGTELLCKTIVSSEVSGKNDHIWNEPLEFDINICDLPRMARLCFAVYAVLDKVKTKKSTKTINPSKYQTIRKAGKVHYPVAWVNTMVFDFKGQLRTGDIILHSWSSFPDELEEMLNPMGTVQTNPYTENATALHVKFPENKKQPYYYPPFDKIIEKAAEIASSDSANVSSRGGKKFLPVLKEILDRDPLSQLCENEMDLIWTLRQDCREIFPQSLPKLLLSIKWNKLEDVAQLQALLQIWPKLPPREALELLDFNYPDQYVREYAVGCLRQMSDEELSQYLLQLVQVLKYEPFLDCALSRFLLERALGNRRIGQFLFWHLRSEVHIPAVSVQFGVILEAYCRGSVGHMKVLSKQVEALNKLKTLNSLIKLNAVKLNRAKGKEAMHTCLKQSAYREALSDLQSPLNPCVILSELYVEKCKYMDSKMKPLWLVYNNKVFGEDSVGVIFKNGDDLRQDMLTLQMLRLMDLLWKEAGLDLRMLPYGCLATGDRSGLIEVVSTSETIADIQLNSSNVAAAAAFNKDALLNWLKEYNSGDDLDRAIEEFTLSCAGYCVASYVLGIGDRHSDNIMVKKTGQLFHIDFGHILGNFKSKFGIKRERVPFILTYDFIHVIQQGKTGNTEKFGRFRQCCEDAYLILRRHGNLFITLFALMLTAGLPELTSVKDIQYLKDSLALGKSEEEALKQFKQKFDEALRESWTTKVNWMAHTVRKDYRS

Structure (SMILES) | pIC50 [1] | GI50 (IGROV-1 [3]) [nM] | other results
Oc1cccc(-c2nc(-c3ccc(Cl)cc3)cc(N3CCOCC3)n2)c1 | 6.16 | – | –
Oc1cccc(-c2cc(N3CCOCC3)nc(NCCc3ccccn3)n2)c1 | 6.74 | 1200 | pIC50 [2]: 5.28; pIC50 [4]: 6.42
CS(=O)(=O)Nc1cccc(-c2cc(N3CCOCC3)nc(NCCc3ccncc3)n2)c1 | 5.04 | 6200 | metabolised at 0.5 h [5]: 53%; metabolised at 0.25 h [6]: 33%
Oc1cccc(-c2cc(NCc3ccncc3)nc(N3CCOCC3)n2)c1 | 6.00 | – | –
Oc1cccc(-c2cc(NCCc3ccncc3)nc(N3CCOCC3)n2)c1 | 6.85 | 700 | pIC50 [2]: 5.80; Activity (IGROV-1 [7]): 4%; Activity (IGROV-1 [8]): 2%; Activity (IGROV-1 [9]): 75%; Activity (IGROV-1 [10]): 87%; metabolised at 0.5 h [5]: 71%; Activity (IGROV-1 [11]): 10%; pIC50 [4]: 6.13; metabolised at 0.25 h [6]: 54%; Activity (IGROV-1 [12]): 21%
CS(=O)(=O)Nc1cccc(-c2cc(N3CCOCC3)nc(NCCc3cccnc3)n2)c1 | < 5.00 | 16200 | –
Oc1cccc(-c2cc(NCc3ccccn3)nc(N3CCOCC3)n2)c1 | 6.05 | – | pIC50 [2]: 5.64; pIC50 [4]: 5.12
Oc1cccc(-c2cc(N3CCOCC3)nc(OCc3ccccn3)n2)c1 | 6.07 | 2500 | –
c1ccc(CCNc2cc(-c3ccc4cc[nH]c4c3)nc(N3CCOCC3)n2)nc1 | < 5.00 | 12000 | –
Oc1cccc(-c2nc(-c3cccnc3)cc(N3CCOCC3)n2)c1 | 6.59 | 630 | pIC50 [2]: 6.36; pIC50 [4]: 6.47
O=c1cc(N2CCOCC2)oc2c(-c3ccccc3)cccc12 [LY-294002] | – | – | Activity (IGROV-1 [7]): 7%; Activity (IGROV-1 [8]): 3%; Activity (IGROV-1 [9]): 72%; Activity (IGROV-1 [10]): 82%; Activity (IGROV-1 [11]): 15%; Activity (IGROV-1 [12]): 21%
Clc1ccc(-c2cc(N3CCOCC3)nc(-c3cccc(OCc4ccccc4)c3)n2)cc1Cl | < 5.00 | – | –
Oc1cccc(-c2cc(OCc3ccccn3)nc(N3CCOCC3)n2)c1 | 6.96 | 1500 | pIC50 [2]: 6.43; pIC50 [4]: 6.14
Oc1cccc(-c2nc(-c3ccncc3)cc(N3CCOCC3)n2)c1 | 6.85 | 1200 | pIC50 [2]: 6.70; pIC50 [4]: 6.82
c1ccc(COc2nc(-c3cccc4[nH]ncc34)cc(N3CCOCC3)n2)nc1 | 5.87 | 2300 | –
Oc1cccc(-c2cc(N3CCOCC3)nc(NCCc3cccnc3)n2)c1 | 6.60 | 750 | –
c1ccc(COc2cc(-c3ccc4cc[nH]c4c3)nc(N3CCOCC3)n2)nc1 | < 5.00 | 6000 | –
Oc1cccc(-c2cc(N3CCOCC3)nc(NCc3ccccn3)n2)c1 | 6.00 | – | –
CS(=O)(=O)Nc1ccc(-c2cc(OCc3ccccn3)nc(N3CCOCC3)n2)cc1 | < 5.00 | 16000 | –
c1cncc(CCNc2cc(-c3cccc4[nH]ncc34)nc(N3CCOCC3)n2)c1 | 6.18 | 2900 | metabolised at 0.5 h [5]: 98%; metabolised at 0.25 h [6]: 66%
CS(=O)(=O)Nc1ccc(-c2cc(N3CCOCC3)nc(OCc3ccccn3)n2)cc1 | 5.21 | 13500 | –
c1cncc(CCNc2nc(-c3ccc4cc[nH]c4c3)cc(N3CCOCC3)n2)c1 | 5.14 | 4200 | –
Oc1cccc(-c2nc(-c3ccc(Cl)c(Cl)c3)cc(N3CCOCC3)n2)c1 | 6.70 | – | –
c1ccc(COc2nc(-c3ccc4cc[nH]c4c3)cc(N3CCOCC3)n2)nc1 | 5.28 | 9000 | –

Structure (SMILES) | pIC50 [1] | GI50 (IGROV-1 [3]) [nM] | other results
c1ccc(COc2cccc(-c3nc(-c4ccccn4)cc(N4CCOCC4)n3)c2)cc1 | < 5.00 | – | –
CS(=O)(=O)Nc1cccc(-c2cc(N3CCOCC3)nc(NCCc3ccccn3)n2)c1 | < 5.00 | 11500 | –
c1cncc(CCNc2cc(-c3ccc4cc[nH]c4c3)nc(N3CCOCC3)n2)c1 | < 5.00 | 6000 | –
Clc1ccc(-c2cc(N3CCOCC3)nc(-c3cccc(OCc4ccccc4)c3)n2)cc1 | < 5.00 | – | –
c1cc(CCNc2nc(-c3ccc4cc[nH]c4c3)cc(N3CCOCC3)n2)ccn1 | < 5.00 | 3000 | metabolised at 0.5 h [5]: 60%; metabolised at 0.25 h [6]: 38%
c1ccc(CCNc2nc(-c3cccc4[nH]ncc34)cc(N3CCOCC3)n2)nc1 | 5.96 | 2700 | –
c1cncc(CCNc2nc(-c3cccc4[nH]ncc34)cc(N3CCOCC3)n2)c1 | 6.09 | 2900 | –
Oc1cccc(-c2cc(N3CCOCC3)nc(NCCc3ccncc3)n2)c1 | 6.64 | 950 | –
c1cc(-c2cc(N3CCOCC3)nc(NCCc3ccncc3)n2)c2cn[nH]c2c1 | 6.36 | 1500 | metabolised at 0.5 h [5]: 74%; metabolised at 0.25 h [6]: 49%
CS(=O)(=O)Nc1cccc(-c2cc(NCCc3cccnc3)nc(N3CCOCC3)n2)c1 | < 5.00 | 11600 | –
Oc1cccc(-c2cc(N3CCOCC3)nc(NCc3ccncc3)n2)c1 | 6.07 | – | –
Oc1cccc(-c2cc(N3CCOCC3)nc(NCc3cccnc3)n2)c1 | 6.06 | – | –
Oc1cccc(-c2nc(-c3ccccn3)cc(N3CCOCC3)n2)c1 | 7.21 | 370 | pIC50 [2]: 7.00; Activity (IGROV-1 [7]): 3%; Activity (IGROV-1 [8]): 5%; Activity (IGROV-1 [9]): 76%; Activity (IGROV-1 [10]): 84%; metabolised at 0.5 h [5]: 57%; Activity (IGROV-1 [11]): 10%; pIC50 [4]: 7.36; metabolised at 0.25 h [6]: 39%; Activity (IGROV-1 [12]): 20%
Oc1cccc(-c2cc(NCCc3cccnc3)nc(N3CCOCC3)n2)c1 | 6.59 | 1200 | pIC50 [2]: 5.72; pIC50 [4]: 6.02
c1ccc(CCNc2cc(-c3cccc4[nH]ncc34)nc(N3CCOCC3)n2)nc1 | 5.89 | 7800 | metabolised at 0.5 h [5]: 84%; metabolised at 0.25 h [6]: 58%
Oc1cccc(-c2cc(NCCc3ccccn3)nc(N3CCOCC3)n2)c1 | 6.60 | 2200 | pIC50 [2]: 5.59; pIC50 [4]: 6.08
c1cc(CCNc2cc(-c3ccc4cc[nH]c4c3)nc(N3CCOCC3)n2)ccn1 | < 5.00 | 14500 | –
CS(=O)(=O)Nc1cccc(-c2cc(NCCc3ccncc3)nc(N3CCOCC3)n2)c1 | < 5.00 | 15000 | –
c1cc(-c2cc(NCCc3ccncc3)nc(N3CCOCC3)n2)c2cn[nH]c2c1 | 6.11 | 2700 | metabolised at 0.5 h [5]: 68%; metabolised at 0.25 h [6]: 37%
c1ccc(COc2cccc(-c3nc(-c4cccnc4)cc(N4CCOCC4)n3)c2)cc1 | < 5.00 | – | –
CS(=O)(=O)Nc1cccc(-c2cc(NCCc3ccccn3)nc(N3CCOCC3)n2)c1 | < 5.00 | 15000 | –
c1ccc(COc2cccc(-c3nc(-c4ccncc4)cc(N4CCOCC4)n3)c2)cc1 | < 5.00 | – | –
c1ccc(COc2cc(-c3cccc4[nH]ncc34)nc(N3CCOCC3)n2)nc1 | 6.30 | 1900 | metabolised at 0.5 h [5]: 66%; metabolised at 0.25 h [6]: 44%

From ChEMBL document CHEMBL1641516, “Preparation and evaluation of trisubstituted pyrimidines as phosphatidylinositol 3-kinase inhibitors. 3-Hydroxyphenol analogues and bioisosteric replacements” (Bioorg Med Chem, 2011)
